How the values were obtained:
[1] = test system: B16F10 melanoma cell-line; assay: MTT colorimetric assay, overall cell growth, B16F10; format: cell-based, mouse; conditions: Mus musculus, B16-F10, 72 hours of incubation, read-out: In Vitro IC50 Growth Inhibitory Values, B16F10
Excerpt: (§1) The amount of formazan obtained at the end of the experiment, measured by means of a spectrophotometer, is directly proportional to the number of living cells. Optical density determination thus enabled a quantitative measurement of the effect of the investigated compounds as compared to the control condition (untreated cells) and/or to other reference compounds. Eleven human cancer cell lines and one mouse melanoma cell-line (B16F10) described in Table 2 were used in the following MTT tests. These cancer cell lines cover seven histological cancer types including prostate (PC3), glioma (Hs683, T98G, U373, melanoma (VM21, VM28), non-small-cell-lung (A549), breast (MCF-7), colon (LoVo) and oesophageal (OE21, OE33) cancers. […] Each cell line was seeded in its appropriate culture medium. The detailed experimental procedure was the following: after a 24-hour period of incubation at 37° C., the culture medium was replaced by 100 μl of fresh medium in which the tested compound was previously dissolved, at the following molar concentrations: 10^-8 […] and 10^-4 M. Each experiment was performed in sestuplicates (6 times). After 72 hours of incubation at 37° C. with (experimental conditions) or without (control condition) the compound to be tested, the medium was replaced by 100 μl MTT dissolved in RPMI (1640 without phenol red) at a concentration of 0.5 or 1 mg/ml. The micro-wells were subsequently incubated during 3 hours and a half at 37° C. and centrifuged at 1300 rpm during 10 minutes. MTT was removed and formazan crystals formed were dissolved in 100 μl DMSO. The micro-wells were shaken for 5 minutes and read on a spectrophotometer at wavelengths of 570 nm (maximal formazan absorbance). For each experimental condition, the mean optical density was calculated, allowing the determination of the percentage of remaining living cells in comparison to the control. […] The origin of all the cell lines we used, along with their biological characteristics, and the validation procedures of the MTT colorimetric assay as employed here are fully detailed in Van Quaquebeke et al., 2005, J Med Chem 48:849-856; […]

T98G glioma cells = assay: MTT colorimetric assay, overall cell growth, T98G; format: cell-based, human; conditions: Homo sapiens, T98G, 72 hours of incubation, read-out: In Vitro IC50 Growth Inhibitory Values, T98G
Excerpt: as §1

[2] = test system: OE33 oesophageal cancer cells; assay: MTT colorimetric assay, overall cell growth, OE33; format: cell-based, human; conditions: Homo sapiens, OE33, 72 hours of incubation, read-out: In Vitro IC50 Growth Inhibitory Values, OE33
Excerpt: as §1

[3] = test system: Eleven human cancer cell lines; assay: MTT colorimetric assay, across the eleven human cancer cell lines; format: cell-based; conditions: mean ± SEM over the 11 human cancer cell lines, MTT, 72 hours; read-out: In Vitro IC50 Growth Inhibitory Values, m ± SEM
Excerpt: as §1

LoVo colon cancer cells = assay: MTT colorimetric assay, overall cell growth, LoVo; format: cell-based, human; conditions: Homo sapiens, LoVo, 72 hours of incubation, read-out: In Vitro IC50 Growth Inhibitory Values, LoVo
Excerpt: as §1

[4] = test system: A549 non-small-cell-lung cancer cells; assay: MTT colorimetric assay, overall cell growth, A549; format: cell-based, human; conditions: Homo sapiens, A549, 72 hours of incubation, read-out: In Vitro IC50 Growth Inhibitory Values, A549
Excerpt: as §1

[5] = test system: A549 non-small-cell-lung cancer cell line; assay: Cellular imaging (quantitative videomicroscopy), global growth ratio, A549; format: cell-based; conditions: Homo sapiens, 72 h, read-out: Global Grow Ratio Treated/Ct (GGR T/Ct) determined by Video Quantitative microscopy, A549
Excerpt: (§2) As the MTT test is based on the mitochondria functions, we also investigated the effects of the di- and tri-vanilloyl derivatives according to the invention on cell proliferation, migration and morphology by means of a cellular imaging approach (Debeir et al., Cytometry 60:29-40, 2004; Debeir et al., IEEE Trans Med Imaging 24:697-711, 2005) either in the human U373-MG glioma cell line, which is apoptosis-resistant but autophagy-sensitive (Lefranc F et al., Neurosurgery 2008) and in the human A549 non-small-cell-lung cancer cell line, which is apoptosis-resistant and autophagy-resistant (Mijatovic T et al., Neoplasia 2006, May; 8(5):402-12).
(§3) Investigations have also been performed in human normal fibroblasts (WS1 and WI38—see Tables 4 and 5). Cellular imaging relied on the use of computer-assisted phase-contrast microscopy making possible to film the behaviour of living cells in culture dishes for several days.
(§4) Cells were seeded in a 25-cm^2 flask at a low density, treated or not with the vanilloyl-esters invention (at a concentration of 50 μM) and filmed thereafter for a period of 72 h. The experiment was conducted in quadruplicates (in duplicates for DLT-95 compounds).
(§5) The behaviour of the cells, in terms of morphology, growth and death were thus investigated. The effect on the overall growth was measured by counting the number of cells on the first (0 h) and the last image (72 h) of each film. The global growth ratio (GGR) was then deduced by dividing the number of cells on the last image by the number of cells on the first image. The ratio GGRtreated cells/GGRcontrol cells, was further calculated thereby obtaining a value that describes the effect of compounds of the present invention on the overall cell growth. The methodology is fully described and validated in Debeir et al., 2008, Exp Cell Res 314:2985-2998 and Mathieu et al., 2009, J Cell Mol Med, Feb. 20, 2009.
(§6) Illustrative pictures (time=0 h and 72 h) of glioblastoma and normal fibroblast cell line left untreated or treated with poly-vanillic compounds according to the invention (50 μM) are provided in FIG. 1 (U373 glioblastoma) and FIG. 2 (normal fibroblasts). The GGR parameter analyses confirmed the marked impairment of cell growth in both cancer cell lines of the poly-vanillic compounds according to the invention (Table 5).

Hs683 glioma cells = assay: MTT colorimetric assay, overall cell growth, Hs683; format: cell-based, human; conditions: Homo sapiens, Hs 683, 72 hours of incubation, read-out: In Vitro IC50 Growth Inhibitory Values, Hs683
Excerpt: as §1

VM21 melanoma cells = assay: MTT colorimetric assay, overall cell growth, VM21; format: cell-based, human; conditions: Homo sapiens; MTT, 72 hours of incubation; read-out: In Vitro IC50 Growth Inhibitory Values, VM21
Excerpt: as §1

[6] = test system: PC-3 prostate cancer cells; assay: MTT colorimetric assay, overall cell growth, PC-3; format: cell-based, human; conditions: Homo sapiens, 72 hours of incubation, read-out: In Vitro IC50 Growth Inhibitory Values, PC-3
Excerpt: as §1

[7] = test system: OE21 oesophageal cancer cells; assay: MTT colorimetric assay, overall cell growth, OE21; format: cell-based, human; conditions: Homo sapiens, OE21, 72 hours of incubation, read-out: In Vitro IC50 Growth Inhibitory Values, OE21
Excerpt: as §1

VM48 melanoma cells = assay: MTT colorimetric assay, overall cell growth, VM48; format: cell-based, human; conditions: Homo sapiens; MTT, 72 hours of incubation; read-out: In Vitro IC50 Growth Inhibitory Values, VM48
U373 glioblastoma cells = assay: MTT colorimetric assay, overall cell growth, U373; format: cell-based, human; conditions: Homo sapiens, U373 MG, 72 hours of incubation, read-out: In Vitro IC50 Growth Inhibitory Values, U373
Excerpt: as §1

[8] = test system: MCF-7 breast cancer cells; assay: MTT colorimetric assay, overall cell growth, MCF-7; format: cell-based, human; conditions: Homo sapiens, MCF7, 72 hours of incubation, read-out: In Vitro IC50 Growth Inhibitory Values, MCF-7
Excerpt: as §1

U373-MG glioma cell line = assay: Cellular imaging (quantitative videomicroscopy), global growth ratio, U373; format: cell-based; conditions: Homo sapiens, 50 μM, 72 h, read-out: Global Grow Ratio Treated/Ct (GGR T/Ct) determined by Video Quantitative microscopy, U373
Excerpt: as §2, §3, §4, §5, §6

[9] = test system: cancer cells versus normal fibroblasts; assay: Anti-proliferative, anti-migratory and anti-kinase effects, cancer cells versus normal fibroblasts; format: cell-based, human; conditions: anti-proliferative
Excerpt: The compounds of the invention were subsequently evaluated for their 1) anti-proliferative effect (by means of the colorimetric MTT assay), 2) pro-autophagic and pro-apoptotic effect (by means of flow cytometry analyses), and 3) anti-migratory effect (by means of quantitative videomicroscopy), in the following human cancer cell-lines: a) U373, T98G and Hs683 glioblastoma cells, b) VM21 and VM48 melanoma cells, c) PC-3 prostate cancer cells, d) MCF-7 breast cancer cells, e) LoVo colon cancer cells, f) OE21 oesophageal cancer cells, and g) A549 NSCLC cancer cells, as well as in human WS1 and WI38 normal fibroblasts (i.e. non-cancer cells).
The best current hits, DLT12 and DLT4, display anti-proliferative, anti-migratory effects and anti-kinase effects which are ˜10 times more pronounced in cancer cells than in normal fibroblasts. […] FIG. 1 illustrates the data obtained with respect to the human U373 glioblastoma model, while FIG. 2 illustrates the data obtained in human normal fibroblasts. […] DLT-95 and its derivatives DLT-95-F and DLT-95-Cl were also shown to have a significant effect on the proliferation 7 different human cancer cell-lines.

## COc1cc(C(=O)OC2CCCC[C@@H]2OC(=O)c2ccc(O)c(OC)c2)ccc1O (stereo partly drawn) [DLT7, S,S-trans-cyclohexane-1,2-diyl bis-(4-hydroxy-3-methoxybenzoate)]
[1]
  IC50: 49 µM
T98G glioma cells
  IC50: 70 µM
[2]
  IC50: 66 µM
[3]
  IC50: 47 ± 4 µM
LoVo colon cancer cells
  IC50: 44 µM
[4]
  IC50: 43 µM
[5]
  activity at 50 µM: 20%
Hs683 glioma cells
  IC50: 57 µM
VM21 melanoma cells
  IC50: 35 µM
[6]
  IC50: 59 µM
[7]
  IC50: 41 µM
VM48 melanoma cells
  IC50: 36 µM
U373 glioblastoma cells
  IC50: 20 µM
[8]
  IC50: 47 µM
U373-MG glioma cell line
  activity at 50 µM: 20%

## COc1cc(C(=O)O[C@@H]2CCCC[C@H]2OC(=O)c2ccc(O)c(OC)c2)ccc1O [DLT8, R,R-trans-cyclohexane-1,2-diyl bis-(4-hydroxy-3-methoxybenzoate)]
[1]
  IC50: 59 µM
T98G glioma cells
  IC50: > 100 µM
[2]
  IC50: 77 µM
[3]
  IC50: > 100 µM
LoVo colon cancer cells
  IC50: 64 µM
[4]
  IC50: 76 µM
[5]
  activity at 50 µM: 50%
Hs683 glioma cells
  IC50: > 100 µM
VM21 melanoma cells
  IC50: 77 µM
[6]
  IC50: 77 µM
[7]
  IC50: 45 µM
VM48 melanoma cells
  IC50: 72 µM
U373 glioblastoma cells
  IC50: 53 µM
[8]
  IC50: 75 µM
U373-MG glioma cell line
  activity at 50 µM: 50%

## COc1cc(C(=O)OCCCCCCCOC(=O)c2ccc(O)c(OC)c2)ccc1O [DLT12, Heptane-1,7-diyl bis-(4-hydroxy-3-methoxybenzoate)]
[3]
  IC50: 46 µM
[5]
  activity at 50 µM: 20%
[9]
  effects more pronounced in cancer cells than in normal fibroblasts: ~10 times
VM21 melanoma cells
  IC50: 32 µM
VM48 melanoma cells
  IC50: 38 µM
U373-MG glioma cell line
  activity at 50 µM: 20%

Source: US20110280940A1, “Di-Vanilloyl And Tri-Vanilloyl Derivatives For Use In Anti-Cancer Therapy” (priority 2008, published 2011)
